For series [1] the following is noted: cited from earlier work.
Series [2] deals with neuropathic (SNI) rats. Briefly: Mechanical allodynia (von Frey, 50% paw withdrawal threshold) after spared nerve injury (SNI). In kind it is in vivo, rat. Conditions: for withdrawal threshold over time vs. vehicle (two-way ANOVA, FIG. 1A): 0.5-8 h; for withdrawal threshold vs. vehicle, Bonferroni post-hoc p: after 1 hour; for AUC of withdrawal threshold vs. vehicle (FIG. 3B): p<0.01; for Area Under the Curve (AUC) of withdrawal threshold vs. vehicle, Bonferroni p (FIG. 2B) / withdrawal threshold over time vs. vehicle (two-way ANOVA, FIG. 2A): dose not given for prodrugs E, F; for withdrawal threshold over time vs. vehicle (two-way ANOVA, FIG. 2A): per os. On the procedure: Experiments were performed in male Sprague-Dawley rats (body weight: 250-300 g; Charles River Laboratories, St. Constant, QC, Canada) and adult male C57BL mice (body weight: 25-30 g; inbred). All animals were housed in small groups at a constant temperature of 22° C., with food and water provided ad libitum, and maintained under a 12 h light/dark cycle (lights on at 7:00 AM; lights off at 7:00 PM). All experimental procedures were conducted in accordance with the guidelines of the Canadian Council on Animal Care, and the protocols were approved by the Animal Care Committee at McGill University.
The different prodrug compounds as synthesized in Example 2 were tested and compared with Gabapentin (150 mg/kg, purchased from Sigma Aldrich, US). Prodrug was dissolved in saline, water, or a vehicle composed of 40% PEG400 and 60% water. Gabapentin was dissolved in a vehicle composed of 40% PEG400 and 60% water. All drugs (doses see the procedure descriptions below) were administrated per os (gavage) through a curved feeding tube (20 G for rats and 22 G for mice) at the beginning of the experiment unless otherwise specified. The dose of prodrug was chosen based on its pharmacokinetic properties, and the doses of Gabapentin were chosen from literature (Lopez-Canul, Palazzo et al. 2015).
Spared nerve injury was performed according to the method of (Decosterd I and Woolf CJ, 2000), see also Lopez-Canul et al., 2015. Rats and mice were anesthetized with isoflurane. The sciatic nerve was exposed at mid-thigh level distal to the trifurcation and freed of connective tissue; the three peripheral branches (sural, common peroneal, and tibial nerves) of the sciatic nerve were exposed without stretching nerve structures. Both tibial and common peroneal nerves were ligated and transected together. Tactile allodynia was absent in healthy (pre-surgery) and sham rats, and the mechanical withdrawal threshold in rats before SNI (pre-surgery) or sham was very close to the cutoff of dynamic plantar aesthesiometer (30 g) (Ugo Basile, Varese, Italy).
On day 14 after surgery, individual rats were placed in a test chamber (clear plastic wire mesh-bottomed cage) and allowed to acclimatize for 30 to 40 minutes. Von Frey filaments (Stoelting, Wood Dale, IL) were used to measure the 50% paw withdrawal threshold using the up-and-down method reported by {Chaplan, 1994 #399}. […] Lifting of the paw indicated a positive response and prompted the use of the […], whereas absence of paw withdrawal after 5 seconds indicated a negative response and prompted the next filament of increasing weight. This paradigm continued for 4 more measurements after the initial change of the behavioral response or until 5 consecutive negative or 4 consecutive positive responses. Based on observations on normal, unoperated, and sham-operated rats, the cutoff value of 15 g was selected as the upper limit for testing because stiffer hairs tended to raise the entire limb rather than to buckle, substantially changing the nature of the stimulus. The resulting scores were used to calculate the 50% response threshold using the formula proposed by Dixon. Allodynia was considered to be present when paw withdrawal thresholds were <4 g, and drugs raising this threshold were considered antiallodynic {Lopez-Canul, 2015}. Accordingly, all nerve ligated rats were verified to be allodynic, responding to a stimulus of <4 g. Rats without mechanical allodynia were excluded. After the determination of the basal response, allodynia was assessed at baseline, 0.5, 1, 1.5, 2, 2.5, 3, 4, 5, 6, 7, and 8 hours post-administration for each treatment described below. Groups of 5 to 6 rats per treatment were used, with each animal being used for 1 treatment only. […]

Series [3] in a line: Oral bioavailability and brain penetrance of UCM765 and UCM924.
For series [4] the following is noted: dose of 40 mg/kg; cited from earlier work.
For series [5] the following is noted: in vivo; cited from earlier work.

Like-named read-outs stand apart in the source and are kept apart here.

For the compound `COc1ccc2cccc(CCNC(C)=O)c2c1` [Agomelatine], in series [1] (at the therapeutic oral dose), the bioavailability (commonly the share of a dose that reaches the circulation, judged against a reference dose that is usually intravenous) is recorded as below 5%.

Regarding `COc1ccc2[nH]cc(CCNC(C)=O)c2c1` [MLT, Melatonin], the half-life (commonly the time needed for the level to fall by half in the phase considered) in series [1] (in vivo) is on record as below 30 min.

With `CC(=O)N(CCN(c1ccc(F)cc1)c1cccc(Br)c1)COC(=O)C(C)(C)C` [Prodrug A, (N-(2-((3-bromophenyl)(4-fluorophenyl)amino)ethyl)acetamido) methyl pivalate], in series [2] (50 mg/kg per os), the “Area Under the Curve (AUC) of withdrawal threshold vs. vehicle, Bonferroni p (FIG. 1B)” value is below 0.01; the “withdrawal threshold over time vs. vehicle (two-way ANOVA, FIG. 1A)” value was “significantly increased the withdrawal threshold”; the “withdrawal threshold vs. vehicle, Bonferroni post-hoc p” value was below 0.001.

`CCOC(=O)OCN(CCN(c1ccc(F)cc1)c1cccc(Br)c1)C(C)=O` [Prodrug B, (N-(2-((3-bromophenyl)(4-fluorophenyl)amino)ethyl)acetamido) methyl ethyl carbonate]: in series [2] (50 mg/kg per os), the “withdrawal threshold over time vs. vehicle (two-way ANOVA, FIG. 1A)” value is recorded as “significantly increased the withdrawal threshold” and the “withdrawal threshold vs. vehicle, Bonferroni post-hoc p” value is below 0.0001.

For the compound `CC(=O)N(CCN(c1ccc(F)cc1)c1cccc(Br)c1)C(=O)OC(C)OC(=O)CN.Cl` (stereo not shown) [Prodrug C, 1-((acetyl(2-((3-bromophenyl)(4-fluorophenyl)amino)ethyl)carbamoyl)oxy)ethyl 2-aminoacetate hydrochloride], the “withdrawal threshold over time vs. vehicle (two-way ANOVA, FIG. 1A)” value in series [2] (50 mg/kg per os) is on record as “significantly increased the withdrawal threshold”.

With `CC(=O)N(CCN(c1ccc(F)cc1)c1cccc(Br)c1)C(=O)OCOC(=O)CN` [Prodrug D-2, ((acetyl(2-((3-bromophenyl)(4-fluorophenyl)amino)ethyl)carbamoyl)oxy)methyl 2-aminoacetate methane-sulfonate], the “effect on withdrawal threshold in the SNI model (FIG. 3A)” value is listed as “not effective” in series [2] (50 mg/kg) and “effective” in series [2] (100 mg/kg). The “AUC of withdrawal threshold vs. vehicle (FIG. 3B)” value in series [2] (50 mg/kg) is given as “significant pro-nociceptive effect”; in series [2] (100 mg/kg), “modest, but significant anti-nociceptive effect”.

Turning to `CC(=O)N(CCN(c1ccc(F)cc1)c1cccc(Br)c1)C(=O)OCOC(=O)C1CCCN1.Cl` (stereo not shown) [Prodrug E, ((acetyl(2-((3-bromophenyl)(4-fluorophenyl)amino)ethyl)carbamoyl)oxy)methyl pyrrolidine-2-carboxylate hydrochloride], in series [2], the “Area Under the Curve (AUC) of withdrawal threshold vs. vehicle, Bonferroni p (FIG. 2B)” value was below 0.05 and the “withdrawal threshold over time vs. vehicle (two-way ANOVA, FIG. 2A)” value is reported as “different from vehicle”. Moreover, the “withdrawal threshold vs. vehicle, post-hoc p (FIG. 2A)” value in series [2] (hour 2, 4 and 5) was below 0.05. Besides, the “withdrawal threshold, treatment vs. vehicle p (FIG. 2A)” value in series [2] (overall) is reported as 0.04.

On to `CC(=O)N(CCN(c1ccc(F)cc1)c1cccc(Br)c1)C(=O)OCOC(=O)[C@@H](N)CC(C)C.Cl` [Prodrug F], for which, in series [2] (after 5, 6 and 7 hours), the “withdrawal threshold vs. vehicle, Bonferroni post-hoc p (FIG. 2A)” value is below 0.0001. In series [2] (after 3 hours), the “withdrawal threshold vs. vehicle, Bonferroni post-hoc p (FIG. 2A)” value is listed as 0.05. Also, in series [2], the “Area Under the Curve (AUC) of withdrawal threshold vs. vehicle, Bonferroni p (FIG. 2B)” value is given as below 0.001 and the “withdrawal threshold over time vs. vehicle (two-way ANOVA, FIG. 2A)” value is given as “significant difference”.

With `CCC(=O)NCC[C@@H]1CCc2ccc3c(c21)CCO3` [Ramelteon], the absolute oral bioavailability in series [1] (extensive first-pass metabolism) was 1.8%.

Consider `COc1cccc(N(CCNC(C)=O)c2ccccc2)c1` [UCM765, N-{2-[(3-methoxyphenyl)-phenylamino]ethyl}acetamide], for which the Kp in series [3] (brain) was found to be 2.5. In series [3] (in vivo, po), this compound had a bioavailability of 2%. Also, the “restorative sleep (NREM sleep)” value in series [4] is listed as “facilitated restorative sleep”. The anti-anxiety properties result in series [5] is on record as “possesses anti-anxiety properties”.

Source of the values: US20250339396A1 (COSMAS THERAPEUTICS DEVELOPMENT INC., priority 2021, published 2025).
